According to PubChem BioAssay AID179 (DTP/NCI, 2004):
“And” between values parts separate entries of the source, which are not always exact repeats. Equal entries are not always repeated. The source made the active and inactive calls.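 Rule for the calls: active = compounds giving half or more protection of infected cells from virus-caused growth loss, again on retest; inactive = the rest.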

Tested on: CEM cells HIV-1 protection, formazan growth assay
Test: NCI AIDS Antiviral Assay
Settings: for IC50: measured here: growth of uninfected CEM cells
Method in brief: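 CEM (human) cells, HIV-1 infected vs uninfected, 5-point dosing, formazan growth read-out. Retest threshold 50% protection.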

| Compound | EC50 | IC50 | outcome |
| --- | --- | --- | --- |
| CCOC(=O)/C(=C\c1ccc([N+](=O)[O-])cc1)[Se]c1ccccc1 | > 69.2 µM | 26.9 µM | – |
| ClCCN1CCOC1=Nc1ccc2c(c1)CCCC2 | > 200 µM | 43.7 µM | – |
| c1cc[c]([Sn]([S]c2ccccn2)([c]2ccccc2)[c]2ccccc2)cc1 | > 2 µM | 0.339 µM | – |
| CCCCOP(=S)(OCCCC)SC1(SC)SSC=C1CC(C)(C)C (centres undefined) | – | – | inactive |
| CSc1ccc(/C=C2\C=Cc3ccccc32)cc1 | > 28.8 µM | > 28.8 µM | – |
| CCC(=O)NC(NNS(=O)(=O)c1ccc(C)cc1)(C(F)(F)F)C(F)(F)F | > 200 µM | 35.5 µM | – |
| COc1ccc(-c2cc(=O)c3c(OC)c(O)c(OC)cc3o2)cc1 | > 200 µM | 38.9 µM | – |
| C=CC(CCC(C)O)[Si](C)(C)C (centres undefined) | > 977 µM | > 977 µM | – |
| CCN(CC)c1ccc2cc(-c3csc(-c4ccc(N(C)C)cc4)n3)c(=O)oc2c1 | > 100 µM | 10 µM | – |
| Cc1n[nH]c(=O)c2cc3oc4ccccc4c3n12 | > 107 µM | 32.4 µM | – |
| O=C(Nc1ccc2c(O)c(N=Nc3ccc(S(=O)(=O)O)cc3)c(S(=O)(=O)O)cc2c1)Nc1ccc2c(O)c(N=Nc3ccc(S(=O)(=O)O)cc3)c(S(=O)(=O)O)cc2c1 | 8.91 µM | 110 µM | – |
| CCC1CN2CCC3(c4ccccc4)CC(C(=O)OC)=CC1C23 (centres undefined) | > 251 µM | 38.9 µM | – |
| CC(O)C1OC(n2cnc3c(=O)[nH]cnc32)C(O)C1O (centres undefined) | > 891 µM | > 891 µM | – |
| CN1CCN(c2[nH]c(=O)n(Cc3ccccc3)c(=S)c2C#N)CC1 | > 200 µM | > 200 µM | – |
| ClCCc1ccccc1CC1=NCCc2ccccc21 | > 200 µM | 36.3 µM | – |
| COc1ccc2c(c1OCC(=O)O)C(=O)C(CCC(=O)O)CC2 (centres undefined) | – | – | inactive |
| Cc1c(C#N)c2n(c1C)CCN2 | > 1550 µM | > 1550 µM | – |
| COc1cc(O)c(C(=O)c2ccccc2)cc1S(=O)(=O)O | > 776 µM | > 776 µM | – |
| Cn1c(N)nc2c3ccc(=O)[nH]c3ccc21 | – | – | inactive |

| Compound | EC50 | IC50 | outcome |
| --- | --- | --- | --- |
| CCCCCC[C@H]1CC(=O)C2CCCC[C@@]23CC[C@H](CCl)N13 (some centres undefined) (tested in a mixture with another compound) | > 200 µM | 105 µM | – |
| Cn1c2c(c(=O)c3cc(O)ccc31)CC(O)C(C)(C)O2 (centres undefined) | > 912 µM | 891 µM | – |
| O=[As](O)(O)c1ccc(Cl)cc1Cl | > 200 µM | 95.5 µM | – |
| O=C(CCl)N1CCC(CC2(c3cc4ccccc4[nH]3)OCCO2)CC1 | > 200 µM | 5.01 µM | – |
| CN(C)N1C(=O)CC2(CCN(CCCC(=O)c3ccc(F)cc3)CC2)C1=O | > 200 µM | > 200 µM | – |
| CC(=O)OCC(OC(C)=O)C(OC(C)=O)C1OC(Oc2ccccc2)C(OC(C)=O)C1OC(C)=O (centres undefined) | > 200 µM | > 200 µM | – |
| C(=C\c1ccc2ccccc2n1)/c1cccnc1 | > 214 µM | 12 µM | – |
| O=C(O)c1ccc2cc(O)ccc2c1 | > 200 µM | > 200 µM | – |
| CCOC(=O)c1ccc(N=Cc2ccc(N(CCC#N)S(=O)(=O)c3ccccc3)cc2C)cc1 | > 75.9 µM | > 75.9 µM | – |
| CN(CC(=O)O)S(=O)(=O)c1ccc(Cl)cc1 | – | – | inactive |
| CN(C)c1ccc(/C=C(/C#N)c2ccc(Cl)cc2)cc1 | > 100 µM | 1.23 µM | – |
| Sc1ccccc1-n1c(-c2ccccc2)ccc1-c1ccccc1 | > 200 µM | 151 µM and 155 µM | – |
| Cn1c(Nc2ccccc2)c(C=Nc2ccccc2)c(=O)n(C)c1=O | > 100 µM | 53.7 µM | – |
| CC[C@H](O)[C@H](C)C=C1SCCCS1 | > 200 µM | > 200 µM | – |
| O=C1N[C@@H]2CCCC[C@@H]2C12CCCCC2 | – | – | inactive |
| O=C(/C(=C1\SS/C(=C(/C(=O)c2ccccc2)c2ccccc2)S1)c1ccccc1)c1ccccc1 | > 200 µM | > 200 µM | – |
| CN(C)Cc1cc(N=Nc2ccccc2Cl)cc(CN(C)C)c1O | > 200 µM | 93.3 µM | – |
| O=C1CC(CC(=O)c2ccc(Br)cc2)C(=O)/C1=C(/O)c1ccc(Br)cc1 (centres undefined) | > 200 µM | 41.7 µM | – |
